# Data reported in PubChem BioAssay (NCI).
#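 How tested: cells in 96-well plates exposed to compound for 48 hours at five concentrations. GI50 marks 50% less growth. TGI denotes the concentration required for complete inhibition of growth.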
# Key:
# Assay in all cases: growth of human tumour cells (NCI), 48 h
# [1] = system: A549 NSCLC
# [2] = system: UO-31 renal
# [3] = system: COLO 205 colon
# [4] = system: RXF 393 renal
# [5] = system: U251 CNS
# [6] = system: HL-60(TB) leukemia
# [7] = system: EKVX NSCLC
# [8] = system: SW-620 colon
# [9] = system: SF-268 CNS
# [10] = system: M14 melanoma
SMILES,TGI [1] [µM],TGI [2] [µM],TGI [3] [µM],TGI [4] [µM],TGI [5] [µM],TGI [6] [µM],TGI [7] [µM],TGI [8] [µM],TGI [9] [µM],TGI [10] [µM],GI50 [1] [µM],GI50 [2] [µM],GI50 [3] [µM],GI50 [4] [µM],GI50 [5] [µM],GI50 [6] [µM],GI50 [7] [µM],GI50 [8] [µM],GI50 [9] [µM],GI50 [10] [µM]
ClC1(c2ccccc2)c2ccc(Br)cc2-c2cc(Br)ccc21,34.3,29.6,33.7,36.6,31.6,> 100,32.3,36.3,39.7,28.7,–,–,–,–,–,–,–,–,–,–
CCn1cc(C(=O)N/N=C/c2cccc(F)c2)c(=O)c2cc(F)c(N3CCNC(C)C3)c(F)c21 (stereo not given),3.29,2.79,3.25,3.22,3.03,3.66,3.06,3.17,3.52,3.37,1.74,1.46,1.71,1.69,1.61,1.88,1.6,1.68,1.8,1.82
O=C1CCC2=C3C4CCCCC4C(=O)C4CCCC(OC2C1)C34 (stereo not given),13.2,3.88,> 72.7,1.79,> 20.2,0.998,> 100,3.13,> 21.8,4.23,2.57,0.487,17.7,0.605,0.428,0.17,12.6,0.394,0.471,1.28
COc1cc(C)[nH]c(=O)c1CN1CCc2c(Cl)cc([C@H](OC)C3COC3)c(Cl)c2C1=O,> 100,> 100,> 100,> 100,> 100,> 100,> 100,> 100,> 100,> 100,> 100,> 100,> 100,> 100,> 100,> 100,> 100,> 100,> 100,> 100
CN(C)c1ccc2cc(-c3cc4c(oc3=O)-c3ccccc3OC4O)c(=O)oc2c1 (stereo not given),7.15,12.7,8.19,6.53,15.7,> 25,> 25,> 25,18.7,9.31,3.22,5.09,3.89,2.69,5.85,5.7,2.18,15.6,6.26,4.73
O=C(O)CCSC(=O)Nc1cccc([N+](=O)[O-])c1,> 100,> 100,> 100,> 100,> 100,> 100,> 100,> 100,64.8,> 100,–,–,–,–,–,–,–,–,–,–
O=C(O)CN(c1ccccc1)S(=O)(=O)c1ccc(Cl)cc1,> 100,> 100,> 100,> 100,> 100,> 100,> 100,> 100,> 100,> 100,–,–,–,–,–,–,–,–,–,–
